Measured values from patent US8247211B2, “Glycopeptide antibiotics” (American Cyanamid Company, priority 2001, dated 2012).
Values after ≈ are worked out from the molar mass of the structure shown.

Legend:
Experiment in all cases: In vitro antibacterial evaluation: minimum inhibitory concentration (MIC), broth dilution method
Assay type in all cases: cell-based
[1] = test system: Enterococcus sp.; conditions: 18 hours at 35° C.
Outline: (§1)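 Values are minimum inhibitory concentrations, meaning the smallest antibiotic concentration that stops growth of the organism. They come from broth dilution in Muller-Hinton II […] per NCCLS guidance (M7-A2), using 5×10^5 CFU/mL and concentrations from 64 to 0.06 μg/mL.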

[2] = test system: Staphylococcus sp.
Outline: as §1

[3] = test system: Streptococcus sp.; conditions: 18 hours at 35° C.
Outline: as §1

[4] = test system: Escherichia coli; conditions: 18 hours at 35° C.
Outline: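 Following NCCLS approved standard M7-A2, compounds are serially diluted from 64 to 0.06 μg/mL in Muller-Hinton II […] and inoculated at 5×10^5 CFU/mL; the MIC is the minimum concentration at which growth is inhibited.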

[5] = broth dilution, inoculum 5×10^5 CFU/mL

MIC Enterococcus avium (GC 4558) ([1]; Enterococcus avium (GC 4558)): 8 µg/mL (≈ 5.82 µM) | MIC Enterococcus faecalis (ATCC 29212) ([1]; Enterococcus faecalis (ATCC 29212)): 8 µg/mL (≈ 5.82 µM) | MIC Enterococcus faecalis (GC 2242) ([1]; Enterococcus faecalis (GC 2242)): 4 µg/mL (≈ 2.91 µM) | MIC Enterococcus faecalis (GC 2691) ([1]; Enterococcus faecalis (GC 2691)): 8 µg/mL (≈ 5.82 µM) | MIC Enterococcus faecalis (GC 3059) ([1]; Enterococcus faecalis (GC 3059)): 8 µg/mL (≈ 5.82 µM) | MIC Enterococcus faecalis (GC 4552) ([1]; Enterococcus faecalis (GC 4552)): 8 µg/mL (≈ 5.82 µM) | MIC Enterococcus faecalis (GC 4553) ([1]; Enterococcus faecalis (GC 4553)): 8 µg/mL (≈ 5.82 µM) | MIC Enterococcus faecalis (GC 4554) ([1]; Enterococcus faecalis (GC 4554)): 8 µg/mL (≈ 5.82 µM) | MIC Enterococcus faecalis (GC 6189) ([1]; Enterococcus faecalis (GC 6189)): 8 µg/mL (≈ 5.82 µM) | MIC Enterococcus faecium (GC 2243) ([1]; Enterococcus faecium (GC 2243)): 8 µg/mL (≈ 5.82 µM) | MIC Enterococcus faecium (GC 4556) ([1]; Enterococcus faecium (GC 4556)): 4 µg/mL (≈ 2.91 µM) | MIC Enterococcus faecium (GC 4557) ([1]; Enterococcus faecium (GC 4557)): 4 µg/mL (≈ 2.91 µM) | MIC Enterococcus avium (GC 4558) [1, 5]: 8 µg/mL (≈ 5.82 µM) | MIC Enterococcus faecalis (ATCC 29212) [1, 5]: 8 µg/mL (≈ 5.82 µM) | MIC Enterococcus faecalis (GC 2242) [1, 5]: 4 µg/mL (≈ 2.91 µM) | MIC Enterococcus faecalis (GC 2691) [1, 5]: 8 µg/mL (≈ 5.82 µM) | MIC Enterococcus faecalis (GC 3059) [1, 5]: 8 µg/mL (≈ 5.82 µM) | MIC Enterococcus faecalis (GC 4552) [1, 5]: 8 µg/mL (≈ 5.82 µM) | MIC Enterococcus faecalis (GC 4553) [1, 5]: 8 µg/mL (≈ 5.82 µM) | MIC Enterococcus faecalis (GC 4554) [1, 5]: 8 µg/mL (≈ 5.82 µM) | MIC Enterococcus faecalis (GC 6189) [1, 5]: 8 µg/mL (≈ 5.82 µM) | MIC Enterococcus faecium (GC 2243) [1, 5]: 8 µg/mL (≈ 5.82 µM) | MIC Enterococcus faecium (GC 4556) [1, 5]: 4 µg/mL (≈ 2.91 µM) | MIC Enterococcus faecium (GC 4557) [1, 5]: 4 µg/mL (≈ 2.91 µM) | MIC Staphylococcus aureus (ATCC 29213) ([2]; strain ATCC 29213): 1 µg/mL (≈ 0.727 µM) | MIC Staphylococcus aureus (GC 1131) ([2]; strain GC 1131): 2 µg/mL (≈ 1.45 µM) | MIC Staphylococcus aureus (GC 3051) ([2]; strain GC 3051): 2 µg/mL (≈ 1.45 µM) | MIC Staphylococcus aureus (GC 3053) ([2]; strain GC 3053): 4 µg/mL (≈ 2.91 µM) | MIC Staphylococcus aureus (GC 4541) ([2]; strain GC 4541): 1 µg/mL (≈ 0.727 µM) | MIC Staphylococcus aureus (GC 4542) ([2]; strain GC 4542): 1 µg/mL (≈ 0.727 µM) | MIC Staphylococcus aureus-SMITH (GC 4543) ([2]; strain GC 4543): 2 µg/mL (≈ 1.45 µM) | MIC Staphylococcus aureus (GC 4544) ([2]; strain GC 4544): 2 µg/mL (≈ 1.45 µM) | MIC Staphylococcus aureus (GC 4545) ([2]; strain GC 4545): 1 µg/mL (≈ 0.727 µM) | MIC Coagulase Negative Staphylococcus (GC 4547) ([2]; strain GC 4547): 2 µg/mL (≈ 1.45 µM) | MIC Coagulase Negative Staphylococcus (GC 4548) ([2]; strain GC 4548): 1 µg/mL (≈ 0.727 µM) | MIC Coagulase Negative Staphylococcus (GC 4549) ([2]; strain GC 4549): 1 µg/mL (≈ 0.727 µM) | MIC Coagulase Negative Staphylococcus (GC 4551) ([2]; strain GC 4551): 2 µg/mL (≈ 1.45 µM) | MIC Coagulase Negative Staphylococcus (GC 6257) ([2]; strain GC 6257): 1 µg/mL (≈ 0.727 µM) | MIC Streptococcus agalactiae (GC 4564) ([3]; Streptococcus agalactiae (GC 4564)): 1 µg/mL (≈ 0.727 µM) | MIC Streptococcus pneumoniae (ATCC 6301) ([3]; Streptococcus pneumoniae (ATCC 6301)): 0.5 µg/mL (≈ 0.364 µM) | MIC Streptococcus pneumoniae (GC 1894) ([3]; Streptococcus pneumoniae (GC 1894)): 0.12 µg/mL (≈ 0.0872 µM) | MIC Streptococcus pneumoniae (GC 4565) ([3]; Streptococcus pneumoniae (GC 4565)): 0.25 µg/mL (≈ 0.182 µM) | MIC Streptococcus pyogenes (GC 4563) ([3]; Streptococcus pyogenes (GC 4563)): 0.5 µg/mL (≈ 0.364 µM) | MIC Streptococcus agalactiae (GC 4564) [3, 5]: 1 µg/mL (≈ 0.727 µM) | MIC Streptococcus pneumoniae (ATCC 6301) [3, 5]: 0.5 µg/mL (≈ 0.364 µM) | MIC Streptococcus pneumoniae (GC 1894) [3, 5]: 0.12 µg/mL (≈ 0.0872 µM) | MIC Streptococcus pneumoniae (GC 4565) [3, 5]: 0.25 µg/mL (≈ 0.182 µM) | MIC Streptococcus pyogenes (GC 4563) [3, 5]: 0.5 µg/mL (≈ 0.364 µM) | MIC Escherichia coli (ATCC 25922) ([4]; Escherichia coli (ATCC 25922)): 64 µg/mL (≈ 46.5 µM) | MIC Escherichia coli (GC 4559) ([4]; Escherichia coli (GC 4559)): 32 µg/mL (≈ 23.3 µM) | MIC Escherichia coli (GC 4560) ([4]; Escherichia coli (GC 4560)): 2 µg/mL (≈ 1.45 µM)
SMILES: CC(c1ccccc1)C1NC(=O)CNC(=O)C(CO)NC(=O)C(C(O)C2CNC(=N)N2C2OC(CO)C(O)C(O)C2O)NC(=O)C(C(O)C2CNC(=N)N2)NC(=O)C(Cc2ccc(OC3OC(CO)C(OC4OC5COC6(CCCCC6)OC5C(O)C4O)C(O)C3O)cc2)NC1=O (stereo not drawn) [Example 203, Cyclo[glycyl-β-methylphenylalanyl-O-[4-O-(4,6-O-cyclohexylidene-4-O-hexopyranosyl)hexopyranosyl]tyrosyl-3-(2-iminoimidazolidin-4-yl)seryl-3-(3-hexopyranosyl-2-iminoimidazolidin-4-yl)serylseryl]]
MIC Staphylococcus haemolyticus (GC 4546) ([2]; strain GC 4546): 1 µg/mL (≈ 0.727 µM)
